Measured values published in ChEMBL document CHEMBL1144808 (J Med Chem, 2008).
Converted amounts (≈) assume the structure as drawn.

Tests used:
HT-29 [1] = assay: Cytotoxicity against human HT29 cells under normoxic condition after 2 hrs by clonogenic assay; format: functional; conditions: HT-29, 2 h
HT-29 [2] = assay: Cytotoxicity against human HT29 cells under hypoxic condition after 2 hrs by clonogenic assay; format: functional; conditions: HT-29, 2 h
HT-29 [3] = assay: Ratio of IC50 for human HT29 cells under normoxic condition to hypoxic condition by clonogenic assay; format: functional
[4] = Aqueous solubility at 100 mg at pH 7.4; format: physicochemical
Mus musculus [5] = assay: Toxicity against human MIAPaCa2 cells xenografted mouse assessed as survival time at 6 mg/kg, ip administered once daily for 5 days a week for 15 days; format: organism-based, MIA PaCa-2; parameters: dose 6 mg/kg, route intraperitoneal; conditions: in vivo
[6] = Toxicity against human MIAPaCa2-RFP cells xenografted mouse; format: organism-based
NCI-H460 [7] = assay: Cytotoxicity against human H460 cells under hypoxic condition after 2 hrs by Alamar blue staining assay; format: functional, cell-based; conditions: NCI-H460, 2 h
NCI-H460 [8] = assay: Cytotoxicity against human H460 cells under normoxic condition after 2 hrs by Alamar blue staining assay; format: functional, cell-based; conditions: NCI-H460, 2 h
NCI-H460 [9] = assay: Ratio of IC50 for human H460 cells under normoxic condition to hypoxic condition by Alamar blue staining assay; format: functional
[10] = Metabolic stability in mouse liver microsomes at 5 uM after 30 mins; format: ADME, Microsome; conditions: read-out: Stability
NCI-H460 [11] = assay: Cytotoxicity against human H460 cells under normoxic condition after 2 hrs by clonogenic assay; format: functional; conditions: NCI-H460, 2 h
NCI-H460 [12] = assay: Cytotoxicity against human H460 cells under hypoxic condition after 2 hrs by clonogenic assay; format: functional; conditions: NCI-H460, 2 h
NCI-H460 [13] = assay: Ratio of IC50 for human H460 cells under normoxic condition to hypoxic condition by clonogenic assay; format: functional
MIA PaCa-2 [14] = assay: Antitumor activity against human MIAPaCa2 cells xenografted mouse assessed as tumor growth inhibition at 30 mg/kg, ip administered once daily for 5 days a week for 15 days; format: functional; conditions: MIA PaCa-2, ip, route intraperitoneal
Mus musculus [15] = assay: Toxicity against human MIAPaCa2 cells xenografted mouse assessed as survival time at 30 mg/kg, ip administered daily once for 5 days a week for 15 days; format: organism-based, MIA PaCa-2; parameters: dose 30 mg/kg, route intraperitoneal; conditions: in vivo
MIA PaCa-2 [16] = assay: Antitumor activity against human MIAPaCa2 cells xenografted mouse assessed as tumor growth inhibition at 200 mg/kg, ip administered weekly once for 3 weeks; format: functional; conditions: MIA PaCa-2, ip, 504 h, route intraperitoneal
Mus musculus [17] = assay: Toxicity against human MIAPaCa2 cells xenografted mouse assessed as survival time at 200 mg/kg, ip administered weekly once for 3 weeks; format: organism-based, MIA PaCa-2; parameters: dose 200 mg/kg, route intraperitoneal; conditions: in vivo, 504 h

| SMILES | IC90 (HT-29 [1]) [µM] | IC90 (HT-29 [2]) [nM] | Ratio IC50 (HT-29 [3]) | solubility [4] [µg/mL] | Survival (Mus musculus [5]) [days] | MTD [6] [mg/kg] | IC50 (NCI-H460 [7]) [nM] | IC50 (NCI-H460 [8]) [µM] | Ratio IC50 (NCI-H460 [9]) | remaining at 0.5 h, 5 µM [10] [%] | IC90 (NCI-H460 [11]) [µM] | IC90 (NCI-H460 [12]) [nM] | Ratio IC50 (NCI-H460 [13]) | inhibition in vivo at 30 mg/kg (MIA PaCa-2 [14]) [%] | Survival (Mus musculus [15]) [days] | inhibition in vivo at 200 mg/kg (MIA PaCa-2 [16]) [%] | Survival (Mus musculus [17]) [days] |
| --- | --- | --- | --- | --- | --- | --- | --- | --- | --- | --- | --- | --- | --- | --- | --- | --- | --- |
| O=[N+]([O-])c1ccc(COP(=O)(NCCBr)NCCBr)o1 | 2 | 60 | 30 | 4300 (≈ 9.88 mM) | 27 | 20 | 83 | 14 | 170 | 79 | 2 | 50 | 40 |  |  |  |  |
| Cn1c(COP(=O)(NCCCl)NCCCl)cnc1[N+](=O)[O-] |  |  |  |  |  |  | 210 | 88 | 420 | 90 |  |  |  |  |  |  |  |
| Cn1c([N+](=O)[O-])cnc1COP(=O)(NCCBr)NCCBr |  |  |  |  |  |  | 5700 | 46 | 8 | 92 |  |  |  |  |  |  |  |
| CN(CCCl)P(=O)(OCc1cnc([N+](=O)[O-])n1C)N(C)CCCl |  |  |  |  |  |  | 110 | 14 | 130 | 15 |  |  |  |  |  |  |  |
| Cn1c(COP(=O)(N(CCCl)CCCl)N(CCCl)CCCl)cnc1[N+](=O)[O-] |  |  |  |  |  |  | 120 | 27 | 230 | 0 |  |  |  |  |  |  |  |
| Cn1c(COP(=O)(NCCBr)NCCBr)cnc1[N+](=O)[O-] [EVOFOSFAMIDE] | 40 | 200 | 200 | 5900 (≈ 13.1 mM) |  | 100 | 19 | 5.1 | 270 | 92 | 30 | 100 | 300 | 41 | 28 |  |  |
| Nc1ccn([C@@H]2O[C@H](CO)[C@@H](O)C2(F)F)c(=O)n1 [GEMCITABINE] |  |  |  |  |  |  |  |  |  |  |  |  |  |  |  | 82 | 42 |
| Nc1n[n+]([O-])c2ccccc2[n+]1[O-] [TIRAPAZAMINE] |  |  |  |  |  |  | 11000 | > 100 | >9 |  |  |  |  |  |  |  |  |
